Measured values: article PMC12548168, “Pitavastatin is a novel Mcl-1 inhibitor that overcomes paclitaxel resistance in triple-negative breast cancer” (Experimental Hematology & Oncology, 2025)

Legend:
[1] = target: T1, Mcl-1 (myeloid cell leukemia 1) (Homo sapiens, UniProt Q07820); assay: surface plasmon resonance (SPR), reference Mcl-1 inhibitor (Supplementary Fig. S2); type: binding
T1 construct: gene MCL1

[2] = target: T1, Mcl-1 (myeloid cell leukemia 1); assay: surface plasmon resonance (SPR); type: binding

T1 sequence (Q07820 whole entry): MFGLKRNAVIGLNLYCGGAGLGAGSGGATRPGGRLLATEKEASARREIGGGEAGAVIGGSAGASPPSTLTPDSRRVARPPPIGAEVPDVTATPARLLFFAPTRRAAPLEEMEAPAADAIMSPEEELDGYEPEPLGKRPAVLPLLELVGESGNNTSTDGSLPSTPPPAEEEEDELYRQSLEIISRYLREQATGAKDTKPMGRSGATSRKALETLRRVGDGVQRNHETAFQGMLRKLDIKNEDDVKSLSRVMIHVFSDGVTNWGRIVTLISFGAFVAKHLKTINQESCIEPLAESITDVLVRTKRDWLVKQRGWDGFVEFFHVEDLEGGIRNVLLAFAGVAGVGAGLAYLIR

SMILES | Kd [1] | Kd [2]
Cc1cc2c(C(C)C)c(O)c(O)c(C=O)c2c(O)c1-c1c(C)cc2c(C(C)C)c(O)c(O)c(C=O)c2c1O [AT101] | 9.48 µM | 
O=C(O)C[C@H](O)C[C@H](O)/C=C/c1c(C2CC2)nc2ccccc2c1-c1ccc(F)cc1 [PITA, Pitavastatin] |  | 3.91 µM
